Test [1] concerns the target histone deacetylase enzyme from partially purified extracts of Eimeria tenella. Briefly: ChEBML_79057. An excerpt: Inhibitory activity against histone deacetylase enzyme derived from partially purified extracts of Eimeria tenella protozoa using [3H]11 as radioligand
Test [2] deals with Histone deacetylase (Eimeria tenella). As to the kind of experiment: Binding affinity towards HDAC enzyme derived from Eimeria tenella protozoa.
Test [3] can be described thus: Inhibitory activity against histone deacetylase enzyme derived from partially purified extracts of Eimeria tenella protozoa using [3H]11 as radioligand.

Molecules are shown by their SMILES. Where only a bound is given, the exact number is not on record here.

In general, IC50 refers to the concentration that gives 50% inhibition. A high value points to weaker potency. `CCCn1cc(C(O)c2nc(O)c(CCCCCC(=O)CC)[nH]c(O)c3n(c(O)c([C@@H](C)CC)[nH]c2=O)CCCC3)c2ccccc21` (stereo not given in full) yielded a half-maximal inhibitory concentration (IC50) in test [1] of 4 nM.

Turning to `CCC(=O)CCCCC[C@@H]1NC(=O)[C@H]2CCCCN2C(=O)[C@H]([C@@H](C)CC)NC(=O)[C@H](CCOc2ccccc2)NC1=O`, the IC50 in test [1] was 3 nM.

In test [1], `CCC(=O)CCCCC[C@@H]1NC(=O)[C@H]2CCCCN2C(=O)[C@H]([C@@H](C)CC)NC(=O)[C@H](Cc2c[nH]c3ccccc23)NC1=O` registered an IC50 of 1 nM.

Regarding `CCC(=O)CCCCC[C@@H]1NC(=O)[C@H]2CCCCN2C(=O)[C@H]([C@@H](C)CC)NC(=O)[C@H](Cc2cn(CC(=O)O)c3ccccc23)NC1=O`, in test [1], inhibition was half-maximal at 100 nM (IC50).

Turning to `CCC(=O)CCCCC[C@@H]1NC(=O)[C@H]2CCCCN2C(=O)[C@H]([C@@H](C)CC)NC(=O)[C@H](Cc2c(-c3ccc4c(ccn4C)c3)[nH]c3ccccc23)NC1=O`, 25 nM corresponded to half-maximal inhibition in test [1] (IC50).

`CCC(=O)CCCCCc1[nH]c(O)c2n(c(O)c([C@@H](C)CC)[nH]c(=O)c(C(O)c3ccc4c(ccn4C)c3)nc1O)CCCC2` (stereo not given in full) had a 50% inhibitory concentration (IC50) in test [1] of 30 nM.

`CCC(=O)CCCCC[C@@H]1NC(=O)[C@H]2CCCCN2C(=O)[C@H]([C@@H](C)CC)NC(=O)[C@H](Cc2cn(OC)c3ccc(Br)cc23)NC1=O` registered an IC50 in test [1] of 175 nM.

In the case of `CCC(=O)CCCCC[C@@H]1NC(=O)[C@H]2CCCCN2C(=O)[C@H]([C@@H](C)CC)NC(=O)[C@H](Cc2cn(C)c3ccccc23)NC1=O`, the half-inhibitory concentration (IC50) in test [1] stood at 5 nM. Compared with the last molecule, the IC50 is about 35-fold lower.

In the case of `CCC(=O)CCCCC[C@@H]1NC(=O)[C@H]2CCCCN2C(=O)[C@H]([C@@H](C)CC)NC(=O)[C@H](Cc2cn(CC)c3ccccc23)NC1=O`, it took 100 nM to reach half-maximal inhibition in test [1] (IC50).

As usually defined, the Ki is the equilibrium dissociation constant of an inhibitor or competing ligand from its target. Low values mean a stronger hold on the target, high ones a looser hold on the target. In test [1], `CCC(=O)CCCCC[C@@H]1NC(=O)[C@H]2CCCCN2C(=O)[C@H]([C@@H](C)CC)NC(=O)[C@H](c2cn(OC)c3ccccc3c2=O)NC1=O` yielded an IC50 of 4 nM. Besides, the Ki in test [2] worked out at 30 nM.

On to `CCCCCCCCCCC(=O)C[C@@H]1NC(=O)[C@H](CCCCCC(=O)CC)NC(=O)[C@H]2CCCCN2C(=O)[C@H]([C@@H](C)CC)NC1=O`, for which the Ki in test [2] was more than 1000 nM.

`CCC(=O)CCCCC[C@@H]1NC(=O)[C@H]2CCCCN2C(=O)[C@H]([C@@H](C)CC)NC(=O)[C@H](c2cnc3ccccc3c2Cl)NC1=O` had an IC50 in test [1] of 2 nM. This molecule also registered an inhibition constant (Ki) in test [2] of 50 nM.

With `CCC(=O)CCCCC[C@@H]1NC(=O)[C@H]2CCCCN2C(=O)[C@H]([C@@H](C)CC)NC(=O)[C@H](Cc2c(Br)[nH]c3ccccc23)NC1=O`, half-maximal inhibition in test [1] (IC50) required 200 nM.

`CCC(=O)CCCCC[C@@H]1NC(=O)[C@H]2CCCCN2C(=O)[C@H]([C@@H](C)CC)NC(=O)[C@H](c2cn(CC)c3ccccc3c2=O)NC1=O`: in test [1], half-maximal inhibition (IC50) required 11 nM. This molecule also displayed a Ki in test [2] of 70 nM.

The molecule `CCC(=O)CCCCCc1[nH]c(O)c2n(c(O)c([C@@H](C)CC)[nH]c(=O)c(CC(O)c3ccccc3[N+](=O)[O-])nc1O)CCCC2` (stereo not given in full) returned an IC50 in test [1] of 33 nM.

In the case of `CCC(=O)CCCCC[C@@H]1NC(=O)[C@H]2CCCCN2C(=O)[C@H]([C@@H](C)CC)NC(=O)[C@H](C(=O)c2c[nH]c3ccccc23)NC1=O`, in test [3], the IC50 stood at 10 nM.

Consider `CCC(=O)CCCCC[C@@H]1NC(=O)[C@H]2CCCCN2C(=O)[C@H]([C@@H](C)CC)NC(=O)[C@H](c2cnc3ccccc3c2O)NC1=O`, for which the inhibition constant Ki in test [2] was 10 nM.

`CCC(=O)CCCCC[C@@H]1NC(=O)[C@H]2CCCCN2C(=O)[C@H]([C@@H](C)CC)NC(=O)[C@H](c2cnc3ccccc3c2N2CCCCC2)NC1=O`: in test [1], the 50% inhibitory concentration (IC50) came out at 0.8 nM. For the same molecule, affinity in test [2] was put at a Ki of 20 nM.

`CCC(=O)CCCCC[C@@H]1NC(=O)[C@H]2CCCCN2C(=O)[C@H]([C@@H](C)CC)NC(=O)[C@@H](c2cnc3ccccc3c2O)NC1=O` returned an inhibitory constant (Ki) in test [2] of 250 nM.

In test [1], `CCC(=O)CCCCC[C@@H]1NC(=O)[C@H]2CCCCN2C(=O)[C@H]([C@@H](C)CC)NC(=O)[C@H](CC2CN(OC)c3ccc(Br)cc32)NC1=O` (stereo not given in full) yielded a half-inhibitory concentration (IC50) of 2500 nM.

In test [1], `CCC(=O)CCCCCc1[nH]c(O)c2n(c(O)c([C@@H](C)CC)[nH]c(=O)c(C(O)c3c[nH]c4ccccc34)nc1O)CCCC2` (stereo not given in full) returned a 50% inhibitory concentration (IC50) of 23 nM.

The values above are taken from BindingDB's records for doi:10.1016/s0960-894x(00)00605-3 (Merck Research Laboratories, 2001).
